These results are taken from PMC8533206 (Antioxidants, 2021).

Assay [1] is described as follows: DPPH radical scavenging activity (cell-free). Particulars: for DPPH radical scavenging activity (in words): cell-free, DPPH 150 µM. Here is the method:
DPPH radical scavenging activities of test compounds were assessed as previously described. Briefly, the reaction mixture containing desired concentrations of test compounds and DPPH radical solution (150 µM) prepared in 95% methanol was incubated for 30 min at 37 °C. The absorbance of the mixture was measured at 520 nm in a microplate reader (SpectraMax M2e). The radical scavenging activity was calculated using the following equation:DPPH radical scavenging activity (%) = 100 × (Abscontrol − Abssample)/Abscontrol where Abscontrol and Abssample represent the absorbances in the absence and in the presence of test compounds, respectively.
In general terms: DPPH is a stable violet radical that fades when it is reduced.

Assay [2] has as its target T1, Human recombinant MAO-A (hMAO-A) (Homo sapiens, UniProt P21397).
T1 construct: purchased Sigma-Aldrich; host or cells: insect cells
T1 sequence (P21397 1-527): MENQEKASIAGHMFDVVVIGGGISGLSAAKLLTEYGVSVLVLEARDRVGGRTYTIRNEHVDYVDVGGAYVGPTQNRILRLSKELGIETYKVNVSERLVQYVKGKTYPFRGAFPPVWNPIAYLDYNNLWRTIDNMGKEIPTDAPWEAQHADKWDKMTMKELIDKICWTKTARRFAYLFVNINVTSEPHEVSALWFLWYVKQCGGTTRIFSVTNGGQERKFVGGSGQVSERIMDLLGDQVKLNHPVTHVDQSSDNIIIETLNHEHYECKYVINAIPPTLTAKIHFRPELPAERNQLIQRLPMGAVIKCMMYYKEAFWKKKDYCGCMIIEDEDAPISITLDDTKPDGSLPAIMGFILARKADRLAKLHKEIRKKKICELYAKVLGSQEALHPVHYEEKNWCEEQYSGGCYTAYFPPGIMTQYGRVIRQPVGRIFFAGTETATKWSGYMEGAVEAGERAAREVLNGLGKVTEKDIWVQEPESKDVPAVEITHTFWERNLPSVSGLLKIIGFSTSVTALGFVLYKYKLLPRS
Kind of assay: MAO-A inhibition assay (Amplex Red fluorescence, p-tyramine substrate). It is filed as biochemical. On the procedure:
The biological evaluation of the tested compounds over both MAO-A and MAO-B was performed following the previously reported method. The MAO activity was measured in relative fluorescence units (RFU) evoked by peroxidase-catalyzed oxidation of Amplex Red® to resorufin, in which H2O2 generated by MAO reaction was used as the electron donor. Human recombinant MAO-A (hMAO-A) and MAO-B (hMAO-B) enzymes expressed in insect cells were obtained from Sigma-Aldrich. The 2 μL of test compound in DMSO ([…]) was treated with 98 μL of hMAO enzyme solution in 50 mM sodium phosphate buffer (pH 7.4, final protein amounts: ~1.25 μg protein/well for MAO-A and ~2.5 μg protein/well for MAO-B) on 96-well black plate and incubated for 15 min at 37 °C. Then, 100 μL of reaction working solution which is a mixed solution of 400 μM Amplex Red® (Cayman, final concentration: 200 μM), 2 U/mL horseradish peroxidase (Sigma-Aldrich, final concentration: 1 U/mL) and 2 mM substrate (p-tyramine for MAO-A, benzylamine for MAO-B, Sigma-Aldrich, final concentration: 1 mM) in 50 mM sodium phosphate buffer (pH 7.4) were added and incubated for 20 min at 37 °C in the dark. The fluorescent intensity was quantified using a microplate reader (SpectraMax®i3, Molecular Device) with an excitation at 545 nm and an emission at 590 nm. The 50% inhibitory concentrations (IC50) of compounds were determined as the mean ± S.E.M. in triplicate from the dose-response inhibition curves using SigmaPlot® 13.0 (Systat Software Inc., San Jose, CA, USA).

In a further assay the target is T2, hMAO-B enzyme (Homo sapiens, UniProt P27338).
T2 construct: purchased Sigma-Aldrich; host or cells: insect cells
T2 sequence (P27338 1-520): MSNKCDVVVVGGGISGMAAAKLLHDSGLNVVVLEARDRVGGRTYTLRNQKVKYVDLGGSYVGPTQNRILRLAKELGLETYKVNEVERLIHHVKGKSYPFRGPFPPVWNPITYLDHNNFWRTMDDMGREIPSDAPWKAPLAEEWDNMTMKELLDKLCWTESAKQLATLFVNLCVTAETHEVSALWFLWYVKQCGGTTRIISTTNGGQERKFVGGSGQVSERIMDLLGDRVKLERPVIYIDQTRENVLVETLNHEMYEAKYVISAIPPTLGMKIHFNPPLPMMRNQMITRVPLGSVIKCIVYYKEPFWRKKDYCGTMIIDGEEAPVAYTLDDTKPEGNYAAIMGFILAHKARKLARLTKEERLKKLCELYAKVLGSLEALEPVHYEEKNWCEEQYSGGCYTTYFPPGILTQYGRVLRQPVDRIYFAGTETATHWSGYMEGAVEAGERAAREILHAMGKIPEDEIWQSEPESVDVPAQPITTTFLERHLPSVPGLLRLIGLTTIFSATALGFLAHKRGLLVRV
Kind of assay: Michaelis-Menten kinetic study of MAO-B inhibition mode. It counts as biochemical. The settings on record: for Type of MAO-B inhibition: Lineweaver-Burk plots intersect at y-axis; for Ki: benzylamine 0.065-4 mM, inhibitor 10, 30, 100 nM, read-out: Ki (inhibition constant), MAO-B. Here is the method:
The type of MAO-B inhibition of the tested compounds was determined by Michaelis-Menten kinetic study following our recently reported study. The type of MAO-B inhibition of the tested compound(s) was determined by Michaelis–Menten kinetic study. The catalytic rates of the hMAO-B enzyme in the absence or in the presence of three different concentrations (10, 30, and 100 nM) of the tested compound were measured at seven different concentrations of the benzylamine (0.065, 0.125, 0.25, 0.5, 1, 2, and 4 mM). The corresponding progression curves and the Lineweaver-Burk plots were generated using GraphPad Prism 7 (GraphPad Software, Inc., La Jolla, CA, USA). The maximal velocity (Vmax), the Michaelis constant (Km), and the inhibition constant (Ki) were calculated using SigmaPlot® 13.0.
The initial rates of MAO-B inhibition in the absence and presence of the tested compound were measured at various concentrations (0.065, 0.125, 0.25, 0.5, 1, 2, and 4 mM) of benzylamine (a selective substrate for MAO-B). The corresponding progression curves and the Lineweaver-Burk plots were generated using GraphPad Prism 7. Both Michaelis–Menten and the Lineweaver-Burk plots were depicted in Figure 4 and Figure 5. […] The maximal velocity (Vmax), the Michaelis constant (Km), and the inhibition constant (Ki) were calculated using SigmaPlot®.

Entries after “also recorded” stand apart in the source; their conditions may differ.

What is called IC50 is the concentration needed to halve the response being measured. For orientation: inhibition means the share of the control response that was lost under treatment. By Ki is commonly meant the dissociation constant of the complex between target and ligand, obtained from inhibition or displacement.

On to `O=C(Nc1ccc2c(c1)OCO2)c1ccc2[nH]ccc2c1` [Compound 8e, N-(benzo[d][1,3]dioxol-5-yl)-1H-indole-5-carboxamide], for which the “DPPH radical scavenging activity (in words)” value in assay [1] was “mild DPPH radical scavenging activities”. In addition, in assay [2], the half-inhibitory concentration (IC50) is greater than 100 µM, the inhibition at 10 µM was less than 10%, the inhibition at 30 µM is less than 10% and the inhibition at 100 µM was less than 10%.

As for `O=C(Nc1ccc(I)cc1)c1ccc2[nH]ccc2c1` [Compound 8a, N-(4-iodophenyl)-1H-indole-5-carboxamide], at hMAO-B enzyme, the “Type of MAO-B inhibition” value is “competitive, and accordingly, reversible; also recorded: Competitive inhibition”; the inhibitory constant (Ki) was 0.0103 µM. For the same compound, in assay [2], the IC50 is greater than 100 µM, the inhibition at 10 µM stood at 17.2%, the inhibition at 30 µM worked out at 21.7% and the inhibition at 100 µM amounted to 23.5%.

On to `O=C(Nc1ccc(Br)cc1)c1ccc2[nH]ccc2c1` [Compound 8b, N-(4-bromophenyl)-1H-indole-5-carboxamide], for which, at hMAO-B enzyme, the “Type of MAO-B inhibition” value is “competitive, and accordingly, reversible; also recorded: Competitive inhibition”; the Ki worked out at 0.00663 µM. In assay [1] (30 and 100 µM), the “Maximal DPPH radical scavenging effect” value was “approximately 10%”. For the same compound, the “DPPH radical scavenging activity (in words)” value in assay [1] is “mild DPPH radical scavenging activity; also recorded: mild DPPH radical scavenging activities”. Moreover, in assay [2], the IC50 was greater than 100 µM, the inhibition at 10 µM came out at 15.1%, the inhibition at 30 µM came out at 27.9% and the inhibition at 100 µM stood at 30.1%.

`COC(=O)c1ccc2c(ccn2C(=O)c2ccc(Cl)c(Cl)c2)c1` [Compound 7b, Methyl 1-(3,4-dichlorobenzoyl)-1H-indole-5-carboxylate]: the “DPPH radical scavenging activity (in words)” value in assay [1] is “mild DPPH radical scavenging activities”. In assay [2], the concentration for half-maximal inhibition (IC50) is greater than 100 µM, the inhibition at 10 µM was less than 10%, the inhibition at 30 µM is less than 10% and the inhibition at 100 µM was less than 10%.
